The values that follow come from patent publication US9155699B2, “Pulmonary delivery for levodopa” (Civitas Therapeutics, Inc., priority 2002, dated 2015).

The conditions of series [1]: 120 minutes after administration.
Another series in a line: in vivo. Conditions: plasma.

Take `N[C@@H](Cc1ccc(O)c(O)c1)C(=O)O` [L-Dopa, Levodopa]: the “plasma level, methods of the invention compared to oral administration” value in series [1] is reported as “twice as high”. The concentration at 2 min in the series “in vivo” (inhaled) amounted to 5000 ng/mL; in the series “in vivo” (po), 1000 ng/mL.
